In US20080241265A1, “Pharmaceutical Combinations Containing Lamivudine, Stavudine and Nevirapine” (priority 2005, published 2008):
“Also recorded” adds a separate entry of the source.

Test: Compatibility study of homogeneous mixtures of the active ingredients (appearance and impurities after storage)
Format: physicochemical
Details: conclusion from the four-week mixture study
From the text: Study was designed so as to evaluate the physico-chemical parameters of these three drugs.

Row | SMILES | Compatibility with the other active ingredient
1 | Nc1ccn([C@@H]2CS[C@H](CO)O2)c(=O)n1 [Lamivudine, (2R-cis)-4-Amino-1-[2-(hydroxymethyl) 1,3-oxathiolan-5-yl]-2(1H)-pyrimidinone] | compatible with Nevirapine; also recorded: not with Stavudine
2 | Cc1cn([C@H]2C=C[C@@H](CO)O2)c(=O)[nH]c1=O [stavudine, (3′-deoxythymidin-2′-ene(3′-deoxy-2′,3′-didehydrothymidine)] | incompatible with nevirapine
